From ChEMBL document CHEMBL1158015, “New steroid glycosides from the deep-water starfish Mediaster murrayi” (J Nat Prod, 1999)

Assays:
[1] = Toxicity in mouse erythrocytes assessed as hemolysis; assay type: cell-based, Erythrocyte; details: read-out: ED50 (the source's name)
[2] = Inhibition of cell division of sea urchin fertilized eggs at 25 uM; assay type: functional; details: Strongylocentrotus intermedius, Egg
[3] = Inhibition of cell division of sea urchin fertilized eggs at 100 uM; assay type: functional; details: Strongylocentrotus intermedius, Egg

Compound: CO[C@H]1[C@H](OC[C@@H]2O[C@@H](O[C@@H](CC[C@@H](C)[C@H]3C[C@@H](O)[C@@H]4[C@]3(C)CC[C@H]3[C@@]4(O)C[C@H](O)C4C[C@@H](O)CC[C@@]43C)C(C)C)[C@H](O)[C@H]2O)OC[C@@H](O)[C@@H]1O (some centres undefined) [MEDIASTEROSIDE M1]
- HC50 [1]: 66 µM
- inhibition at 25 µM [2]: 100%

Compound: CC(C)[C@H](CC[C@@H](C)[C@H]1C[C@@H](O)[C@@H]2[C@]1(C)CC[C@H]1[C@@]2(O)C[C@H](O)C2C[C@@H](O)CC[C@@]21C)O[C@@H]1O[C@@H](CO[C@@H]2OC[C@@H](O)[C@H](O)[C@H]2O)[C@H](O)[C@H]1O (some centres undefined) [MEDIASTEROSIDE M2]
- inhibition at 100 µM [3]: 100%
- HC50 [1]: 35 µM
